Results from article PMC8589634 (The Journal of Prevention of Alzheimer's Disease, 2021).

Tests used:
[1] = test system: patients with AD and agitation/aggression; test: Lit-AD randomized trial of low-dose lithium; format: in vivo, human
[2] = test system: patients with mild or mild/moderate AD; test: LMTM Phase 3 exposure groups against historical placebo meta-analysis; format: in vivo, human; conditions: 8mg/day
[3] = test system: subjects with moderate AD; test: Masupirdine phase-2 trial, NPI-12 agitation/aggression subgroup analysis; format: in vivo, human
[4] = test system: subjects with moderate AD; test: Masupirdine phase-2 trial, NPI-12 psychosis subgroup analysis; format: in vivo, human
[5] = test system: patients with PD psychosis and PD dementia; test: HARMONY trial, post hoc PD dementia subgroup; format: in vivo, human
AD patients = conditions: cited from earlier work
healthy volunteers [6] = test: Brain spectroscopy after NR supplementation; format: in vivo, human; conditions: two weeks of NR supplementation
[7] = test system: patients with agitation in Alzheimer’s dementia; test: Brexpiprazole phase 3 pooled CGI-S and CMAI responder analysis; format: in vivo, human
[8] = test system: patients with agitation in Alzheimer’s dementia; test: Brexpiprazole phase 3 studies, post-hoc CMAI-IPA; format: in vivo, human
patients with MCI or PD [9] = test: Safety and tolerability of single doses of clenbuterol; format: in vivo, human
healthy volunteers [10] = test system: healthy volunteers
AD and PD patients = test: Posiphen phase 2a studies in AD and PD; format: in vivo, human
PSEN1-AD neurons = conditions: screen of existing drug library; earlier work of the authors; cited from earlier work
patients with MCI or PD [11] = test: Cerebral blood flow by pCASL MRI after clenbuterol; format: in vivo, human
[12] = test system: patients with mild-to-moderate AD; test: Open-label study of simufilam, interim analysis; format: in vivo, human
GRN mutation carriers = conditions: repeat administration; earlier Phase 2 study; cited from earlier work
[13] = first dose 80µg, 3 hours post-dose, n=8
[14] = second visit, 1mg nadolol 2.5 hours before clenbuterol, n=4
[15] = second visit, clenbuterol monotherapy, n=4
[16] = 80µg single dose, patients affected

Molecule: O=C([O-])[O-].[Li+].[Li+] [lithium, lithium carbonate]
- moderate or marked improvement (CGI) ([1]; 12 weeks): 36.8%
- proportion of responders ([1]; 30% reduction in NPI agitation/aggression plus psychosis and CGI much or very much improved, 12 weeks): 31.6%
- reduction vs placebo in patients with high Young Mania Rating Scale scores (β) ([1]; 95%CI 1.18 to 8.94): 5.06
- improvement on NPI delusions and irritability/lability ([1]; exploratory analyses): greater than placebo
- change in NPI agitation/aggression ([1]; lithium carbonate 150–600 mg daily, 12 weeks, linear mixed effects model): not significantly superior to placebo
- safety outcomes ([1]; vs placebo): did not differ significantly from placebo

Molecule: CN(C)c1ccc2c(c1)Sc1cc(N(C)C)ccc1N2.CS(=O)(=O)O.CS(=O)(=O)O [LMTM, leuco-methylthionine dihydromesylate]
- decline on ADAS-cog11 over 12 months ([2]; above-threshold plasma levels): 1.58±0.46 units
- decline on ADAS-cog11 over 12 months ([2]; below-threshold exposure): 4.74±0.60 units

Molecule: COc1ccc2c(c1)c(CN1CCN(C)CC1)cn2S(=O)(=O)c1ccccc1Br [masupirdine]
- effect size (Cohen’s d), agitation/aggression ([3]; 50 mg, end of 26 weeks): 0.66
- NPI-12 agitation/aggression scores ([3]; 50 & 100 mg arms, Week 13, MMRM): statistically significant (p<0.01) reduction
- NPI-12 psychosis score vs placebo ([4]; 50 mg, Week 4 & 13, p<0.05, MMRM): significant reduction
- NPI-12 psychosis score vs placebo ([4]; 100 mg, Week 26, p<0.1): trend

Molecule: CC(C)COc1ccc(CNC(=O)N(Cc2ccc(F)cc2)C2CCN(C)CC2)cc1 [pimavanserin]
- sustained response at weeks 8 and 12 ([5]; 34 mg, open-label period, 36 of 49): 73.5%
- patients who met relapse criteria ([5]; at the time the study was stopped, n=16): 1
- any TEAE ([5]; double-blind period): 31.3%
- serious TEAEs ([5]; double-blind period): No patients
- risk of psychosis relapse, hazard ratio vs placebo ([5]; double-blind period, Cox regression, 95% CI 0.016, 0.166): 0.052
- any TEAE ([5]; open-label period): 46.9%
- decreased appetite ([5]; open-label period): 8.2%
- fall ([5]; open-label period): 6.1%
- insomnia ([5]; open-label period): 8.2%
- serious TEAE ([5]; open-label period): 10.2%
- somnolence ([5]; open-label period): 8.2%
- urinary tract infection ([5]; open-label period): 6.1%
- weight decreased ([5]; open-label period): 8.2%
- MMSE mean change from baseline ([5]; open-label, baseline to week 12, SE 0.66): 0.3
- ESRS-A mean change from baseline ([5]; open-label, baseline to week 12, SE 0.74): −1.7
- complete response (SAPS-H+D score=0) ([5]; week 12, of 38 patients evaluated): 42.1%

Molecule: Sola: monoclonal antibody comparator (Expedition 1–3)
- ADAS-Cog effect size, slowing (AD patients; Expedition 1+2 mild individuals): 34.8%
- ADCS-ADL effect size, slowing (AD patients; Expedition 3): 15.4%
- CDR-SB effect size, slowing (AD patients; Expedition 3): 15.4%

Molecule: NC(=O)c1ccc[n+]([C@@H]2O[C@H](CO)[C@@H](O)[C@H]2O)c1 [NR, Nicotinamide Riboside]
- CK/ATPase activity and GSH levels (healthy volunteers [6]; N=4): Only a small difference
- brain NAD+ and redox ratio (RR) (healthy volunteers [6]; N=4, preliminary): elevations

Molecule: O=c1ccc2ccc(OCCCCN3CCN(c4cccc5sccc45)CC3)cc2[nH]1 [brexpiprazole]
- patients with CGI-S score of 1 or 2 ([7]; 2 mg/day, week 12, 140/237): 59.1%
- patients with improvement in CMAI of at least 10 points ([7]; 2 mg/day, week 12, 177/237): 74.7%
- patients with improvement on CGI-S of at least 1 point ([7]; 2 mg/day, week 12, 188/237): 79.3%
- difference vs placebo, CGI-S score of 1 or 2 ([7]; week 12, p = 0.0033): 13.5%
- difference vs placebo, CMAI improvement of at least 10 points ([7]; week 12, p = 0.0550): 8.0%
- difference vs placebo, CGI-S improvement of at least 1 point ([7]; week 12, p=0.0048): 11.4%
- CMAI-IPA, adjusted mean difference vs placebo ([8]; Study 1, 2 mg/day (n=138) vs placebo (n=131), baseline to Week 12, MMRM): −2.34
- CMAI-IPA, adjusted mean difference vs placebo ([8]; Study 2, titrated to 2 mg/day (n=77) vs placebo (n=74), Week 12, MMRM): −2.79

Molecule: CC(C)(C)NCC(O)COc1cccc2c1CC(O)C(O)C2 (centres unmarked) [nadolol]
- peripheral cardiovascular and metabolic effects of clenbuterol (patients with MCI or PD [9]; 1mg nadolol 2.5 hours before clenbuterol): mostly eliminated

Molecule: CC(=O)Nc1nc(F)c(CN2CC[C@H](OCc3noc(C)n3)C[C@@H]2C)s1 [LY3372689]
- food effect on AUC (3 mg QD, fed vs fasted): minimal effect
- food effect, decrease of Cmax (3 mg QD, fed vs fasted): 43%
- food effect, increase of tmax (3 mg QD, fed vs fasted): 5 h
- exposure (AUC and Cmax) vs dose (SAD 0.15–16 mg and MAD 1, 3, 7 mg): generally dose-proportional
- renal clearance (single or multiple dosing): not a major contributor
- maximum tolerated dose (healthy volunteers [10]; SAD): not achieved
- tolerability (healthy volunteers [10]; up to the highest dose in each study): generally well tolerated

Molecule: CN1CC[C@]2(C)c3cc(OC(=O)Nc4ccccc4)ccc3N(C)[C@H]12 [Posiphen]
- Aβ42/40 ratio (AD and PD patients; AD patients): improved
- axonal health as measured by NfL (AD and PD patients; AD patients): improved axonal health
- sAPPα, sAPPβ, Tau, p-Tau (AD and PD patients; AD patients): reduced
- ADAS-Cog 11 (AD and PD patients; AD patients, 80 mg QD for 25 +/− 2 days, vs baseline): statistically significant improvements
- WAIS coding (AD and PD patients; AD patients, 80 mg QD, vs baseline): statistically significant improvements
- UPDRS, all 4 parts (AD and PD patients; PD patients): strong trends
- WAIS coding test (AD and PD patients; PD patients): statistically significant improvements
- inflammation (AD and PD patients; treated patients, to baseline or to placebo): statistically significantly lowered

Molecule: CC(C)C[C@H]1C(=O)N2CCC[C@H]2[C@]2(O)O[C@](NC(=O)[C@@H]3C=C4c5cccc6[nH]c(Br)c(c56)C[C@H]4N(C)C3)(C(C)C)C(=O)N12 [bromocriptine]
- modification of Aβ production (PSEN1-AD neurons): most potent modifier of Aβ production

Molecule: CC(C)(C)NCC(O)c1cc(Cl)c(N)c(Cl)c1 (centres unmarked) [clenbuterol]
- increase in CBF, amygdala (patients with MCI or PD [11]; [13]): 14.3%
- increase in CBF, hippocampus (patients with MCI or PD [11]; [13]): 20.3%
- increase in CBF, thalamus (patients with MCI or PD [11]; [13]): 13.1%
- Mean Relative Difference in perfusion, hippocampus (patients with MCI or PD [11]; [14]): 13.7±5.9%
- Mean Relative Difference in perfusion, thalamus (patients with MCI or PD [11]; [14]): 16.2±5.2%
- Mean Relative Difference in perfusion, amygdala (patients with MCI or PD [11]; [15]): 8.1±11.5%
- Mean Relative Difference in perfusion, hippocampus (patients with MCI or PD [11]; [15]): 18.6±15.1%
- Mean Relative Difference in perfusion, thalamus (patients with MCI or PD [11]; [15]): 21.0±10.8%
- increase in heart rate, mean [SD] (patients with MCI or PD [9]; 80µg single dose): 12.9 [8.2] bpm
- palpitations (patients with MCI or PD [9]; [16]): 1/8
- tremor (patients with MCI or PD [9]; [16]): 4/8
- safety and tolerability (patients with MCI or PD [9]; single doses of 80µg): safe and well tolerated

Molecule: CN1CCC2(CC1)NCC(=O)N2Cc1ccccc1 [simufilam]
- ADAS-Cog11 mean change from baseline to Month 12 ([12]; 100 mg twice-daily oral, first 50 subjects, open-label): −3.23 ± 6.25 points
- safety and tolerability ([12]; 12 months): safe and well-tolerated
- subjects with no neuropsychiatric symptoms (NPI) ([12]; 12 months, baseline 34%): over 50%
- ADAS-Cog11 score, mean ([12]; Month 12, Day 1 mean 16.73 ± 7.86): 13.51 ± 9.20
- subjects with improved ADAS-Cog11 scores ([12]; baseline to Month 12, 50 subjects): 68%
- ADAS-Cog11 median change ([12]; baseline to Month 12, first 50 subjects): −4.0 points

B1: AL001: human monoclonal IgG1 antibody that blocks and downregulates Sortilin (antibody, chains of the INN, looked up, V domains shown)
VH: QVQLQESGPGLVKPSETLSLTCAVSGYSISSGYYWGWIRQPPGKGLEWIGTIYHSGSTYYNPSLKSRVTISVDTSKNQFSLKLSSVTAADTAVYYCARQGSIKQGYYGMDVWGQGTTVTVSS
VL: DIVMTQSPLSLPVTPGEPASISCRSSQSLLRSTGYNYLDWYLQKPGQSPQLLIYLGSNRASGVPDRFSGSGSGTDFTLKISRAEAEDVGVYYCMQQQEAPLTFGGGTKVEIK
- CSF PGRN levels (GRN mutation carriers): normalize CSF PGRN levels
